For the test, the target named is T1, AR (Homo sapiens, UniProt P10275).
T1 construct: endogenous in cells; host or cells: VCaP cells
T1 sequence (P10275 1-920): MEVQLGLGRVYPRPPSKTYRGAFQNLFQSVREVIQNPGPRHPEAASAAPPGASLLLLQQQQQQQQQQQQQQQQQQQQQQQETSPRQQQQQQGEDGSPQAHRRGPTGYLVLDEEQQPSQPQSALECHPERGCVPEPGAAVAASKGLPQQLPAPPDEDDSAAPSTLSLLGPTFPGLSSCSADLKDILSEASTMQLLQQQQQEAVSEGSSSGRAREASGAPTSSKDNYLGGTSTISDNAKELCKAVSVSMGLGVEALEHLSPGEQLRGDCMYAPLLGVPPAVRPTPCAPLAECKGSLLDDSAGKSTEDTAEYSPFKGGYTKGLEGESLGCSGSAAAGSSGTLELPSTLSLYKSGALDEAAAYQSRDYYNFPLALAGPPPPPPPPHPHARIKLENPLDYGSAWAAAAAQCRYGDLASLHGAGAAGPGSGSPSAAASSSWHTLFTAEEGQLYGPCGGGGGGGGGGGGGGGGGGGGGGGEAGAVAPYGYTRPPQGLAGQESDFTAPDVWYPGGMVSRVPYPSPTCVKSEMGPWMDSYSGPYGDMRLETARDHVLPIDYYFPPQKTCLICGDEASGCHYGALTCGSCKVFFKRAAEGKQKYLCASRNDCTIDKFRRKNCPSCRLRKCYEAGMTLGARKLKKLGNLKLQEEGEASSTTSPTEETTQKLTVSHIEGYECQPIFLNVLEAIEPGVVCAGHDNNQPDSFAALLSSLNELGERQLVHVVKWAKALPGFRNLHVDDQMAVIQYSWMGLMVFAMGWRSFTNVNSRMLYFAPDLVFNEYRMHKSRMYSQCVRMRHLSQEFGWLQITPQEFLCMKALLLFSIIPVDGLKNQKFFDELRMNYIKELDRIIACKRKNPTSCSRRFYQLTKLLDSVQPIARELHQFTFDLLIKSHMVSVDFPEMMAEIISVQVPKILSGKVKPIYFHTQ
The experiment in a line: VCAP AR Degradation Assay. Type of test: cell-based. To be noted: for Y (AR degradation efficiency, % of DMSO control): class symbols *; for DC50: class symbols A-C. The method in brief:
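VCaP cells treated 24 h at 37 °C with a 10-point 1:3 series (top 5 μM final; 0.1% DMSO control). Lysate AR measured by sandwich ELISA, normalized to DMSO as percent of control; DC50, EC50 and lowest AR level (Y) from four-parameter logistic fit.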

Counter-ions that a name gives are not always drawn. Like-named read-outs stand apart in the source and are kept apart here.

The source of these data is US12404241B2 (Celgene Corporation, priority 2018, dated 2025).

Broadly, the DC50 is the midpoint of the concentration-degradation curve. Turning to `CCc1cc(N2C(=S)N(c3cnc(C#N)c(C(F)(F)F)c3)C(=O)C23CCC3)ccc1OCCN1CC2CCC(C1)N2CC(=O)Nc1cccc(NC2CCC(=O)NC2=O)c1` (stereo not drawn) [Example 171, 2-(3-(2-(4-(7-(6-cyano-5-(trifluoromethyl)pyridin-3-yl)-8-oxo-6-thioxo-5,7-diazaspiro[3.4]octan-5-yl)-2-ethylphenoxy)ethyl)-3,8-diazabicyclo[3.2.1]octan-8-yl)-N-(3-(2,6-dioxopiperidin-3-ylamino)phenyl)acetamide], the “Y (AR degradation efficiency, % of DMSO control)” value is reported as “* (0<Y<=25%)” and the DC50 is less than 100 nM.

In the case of `CCc1cc(N2C(=S)N(c3ccc(C#N)c(C(F)(F)F)c3)C(=O)C2(C)C)ccc1OCCN1C[C@H](C)N(CC(=O)Nc2cc(Cl)cc(NC3CCC(=O)NC3=O)c2)C[C@H]1C` (stereo partly drawn) [Example 124, N-(3-chloro-5-(2,6-dioxopiperidin-3-ylamino)phenyl)-2-((2S,5R)-4-(2-(4-(3-(4-cyano-3-(trifluoromethyl)phenyl)-5,5-dimethyl-4-oxo-2-thioxoimidazolidin-1-yl)-2-ethylphenoxy)ethyl)-2,5-dimethylpiperazin-1-yl)acetamide], the “Y (AR degradation efficiency, % of DMSO control)” value is given as “* (0<Y<=25%)”. Besides, the DC50 (read-out: DC50) lay in the range of 100 to 500 nM.

Turning to `CCc1c(OCCN2C[C@@H](C)N(CC(=O)Nc3cccc(NC4CCC(=O)NC4=O)c3)[C@@H](C)C2)ccc(N2C(=S)N(c3ccc(C#N)c(C(F)(F)F)c3)C(=O)C2(C)C)c1C` (stereo partly drawn) [Example 270, 2-((2R,6S)-4-(2-(4-(3-(4-cyano-3-(trifluoromethyl)phenyl)-5,5-dimethyl-4-oxo-2-thioxoimidazolidin-1-yl)-2-ethyl-3-methylphenoxy)ethyl)-2,6-dimethylpiperazin-1-yl)-N-(3-(2,6-dioxopiperidin-3-ylamino)phenyl)acetamide], the “Y (AR degradation efficiency, % of DMSO control)” value is on record as “** (25%<Y<=35%)”. For the same molecule, the DC50 (read-out: DC50) fell in the range of 100 to 500 nM.

With `C[C@@H]1CN(CCOc2ccc(N3C(=S)N(c4ccc(C#N)c(C(F)(F)F)c4)C(=O)C3(C)C)cc2CC(F)F)CCN1CC(=O)Nc1cc(Cl)cc(NC2CCC(=O)NC2=O)c1` (stereo partly drawn) [Example 152, N-(3-chloro-5-(2,6-dioxopiperidin-3-ylamino)phenyl)-2-((R)-4-(2-(4-(3-(4-cyano-3-(trifluoromethyl)phenyl)-5,5-dimethyl-4-oxo-2-thioxoimidazolidin-1-yl)-2-(2,2-difluoroethyl)phenoxy)ethyl)-2-methylpiperazin-1-yl)acetamide], the “Y (AR degradation efficiency, % of DMSO control)” value is “* (0<Y<=25%)”. The 50% degradation concentration (DC50) (read-out: DC50) was less than 100 nM.

For the molecule `CCc1cc(N2C(=S)N(c3ccc(C#N)c(C(F)(F)F)c3)C(=O)C2(C)C)ccc1OCCN1C[C@@H](C)N(CC(=O)Nc2cc(C#N)cc(NC3CCC(=O)NC3=O)c2)C[C@H]1C` (stereo partly drawn) [Example 181, 2-((2R,5R)-4-(2-(4-(3-(4-cyano-3-(trifluoromethyl)phenyl)-5,5-dimethyl-4-oxo-2-thioxoimidazolidin-1-yl)-2-ethylphenoxy)ethyl)-2,5-dimethylpiperazin-1-yl)-N-(3-cyano-5-(2,6-dioxopiperidin-3-ylamino)phenyl)acetamide], the “Y (AR degradation efficiency, % of DMSO control)” value is “* (0<Y<=25%)”. The DC50 (read-out: DC50) is less than 100 nM.

As to `CCc1cc(N2C(=S)N(c3ccc(C#N)c(C(F)(F)F)c3)C(=O)C2(C)C)ccc1OCCN1C[C@@H](C)N(CC(=O)Nc2cc(C#N)cc(NC3CCC(=O)NC3=O)c2)[C@@H](C)C1` (stereo partly drawn) [Example 186, 2-((2S,6R)-4-(2-(4-(3-(4-cyano-3-(trifluoromethyl)phenyl)-5,5-dimethyl-4-oxo-2-thioxoimidazolidin-1-yl)-2-ethylphenoxy)ethyl)-2,6-dimethylpiperazin-1-yl)-N-(3-cyano-5-(2,6-dioxopiperidin-3-ylamino)phenyl)acetamide], the “Y (AR degradation efficiency, % of DMSO control)” value is recorded as “* (0<Y<=25%)”. The DC50 (read-out: DC50) was less than 100 nM.

Turning to `CC(C)c1cc(N2C(=S)N(c3ccc(C#N)c(C(F)(F)F)c3)C(=O)C2(C)C)ccc1OCCN1CCN(CC(=O)Nc2cccc(NC3CCC(=O)NC3=O)c2)[C@H](C)C1` (stereo partly drawn) [Example 162, 2-((R)-4-(2-(4-(3-(4-cyano-3-(trifluoromethyl)phenyl)-5,5-dimethyl-4-oxo-2-thioxoimidazolidin-1-yl)-2-isopropylphenoxy)ethyl)-2-methylpiperazin-1-yl)-N-(3-(2,6-dioxopiperidin-3-ylamino)phenyl)acetamide], the “Y (AR degradation efficiency, % of DMSO control)” value is “** (25%<Y<=35%)”. Moreover, where the note is “read-out: DC50”, the DC50 lay within 100 to 500 nM.

Regarding `CC(C)c1cc(N2C(=S)N(c3ccc(C#N)c(Cl)c3)C(=O)C2(C)C)ccc1OCCN1C[C@@H](C)N(CC(=O)Nc2cc(C#N)cc(NC3CCC(=O)NC3=O)c2)[C@@H](C)C1` (stereo partly drawn) [Example 250, 2-((2S,6R)-4-(2-(4-(3-(3-chloro-4-cyanophenyl)-5,5-dimethyl-4-oxo-2-thioxoimidazolidin-1-yl)-2-isopropylphenoxy)ethyl)-2,6-dimethylpiperazin-1-yl)-N-(3-cyano-5-(2,6-dioxopiperidin-3-ylamino)phenyl)acetamide], the “Y (AR degradation efficiency, % of DMSO control)” value is “* (0<Y<=25%)”. Moreover, the DC50 (read-out: DC50) is less than 100 nM.

Take `CC1(C)C(=O)N(c2ccc(C#N)c(C(F)(F)F)c2)C(=S)N1c1ccc(OCCN2CCN(CC(=O)Nc3cc(NC4CCC(=O)NC4=O)ccc3Cl)CC2)c(Cl)c1` (stereo not drawn) [Example 20, hydrochloride]: the “Y (AR degradation efficiency, % of DMSO control)” value is “* (0<Y<=25%)”. The 50% degradation concentration (DC50) (read-out: DC50) was less than 100 nM.

Turning to `CCc1cc(N2C(=S)N(c3cnc(C#N)c(C(F)(F)F)c3)C(=O)C2(C)C)ccc1OCCN1CCN(CC(=O)Nc2cc(Cl)cc(NC3CCC(=O)NC3=O)c2)C(C)(C)C1` (stereo not drawn) [Example 78, N-(3-chloro-5-(2,6-dioxopiperidin-3-ylamino)phenyl)-2-(4-(2-(4-(3-(6-cyano-5-(trifluoromethyl)pyridin-3-yl)-5,5-dimethyl-4-oxo-2-thioxoimidazolidin-1-yl)-2-ethylphenoxy)ethyl)-2,2-dimethylpiperazin-1-yl)acetamide], the “Y (AR degradation efficiency, % of DMSO control)” value is “* (0<Y<=25%)”. The half-maximal degradation concentration (DC50) (read-out: DC50) was less than 100 nM.

Consider `CCc1cc(N2C(=S)N(c3ccc(C#N)c(C(F)(F)F)c3)C(=O)C2(C)C)ccc1OCCN1CCN(CC(=O)Nc2cccc(NC3CCC(=O)NC3=O)c2)C[C@H]1CO` (stereo partly drawn) [Example 49], for which the “Y (AR degradation efficiency, % of DMSO control)” value is “** (25%<Y<=35%)”. For the setting “read-out: DC50”, the DC50 was less than 100 nM.

As for `CCc1cc(N2C(=S)N(c3ccc(C#N)c(C(F)(F)F)c3)C(=O)C2(C)C)ccc1OCCN1C[C@H](C)N(CC(=O)Nc2cccc(NC3CCC(=O)NC3=O)c2)C[C@H]1C` (stereo partly drawn) [Example 122, 2-((2S,5R)-4-(2-(4-(3-(4-cyano-3-(trifluoromethyl)phenyl)-5,5-dimethyl-4-oxo-2-thioxoimidazolidin-1-yl)-2-ethylphenoxy)ethyl)-2,5-dimethylpiperazin-1-yl)-N-(3-(2,6-dioxopiperidin-3-ylamino)phenyl)acetamide], the “Y (AR degradation efficiency, % of DMSO control)” value is given as “** (25%<Y<=35%)”. The half-maximal degradation concentration (DC50) (read-out: DC50) lay in the range of 100 to 500 nM.

For the molecule `CCc1cc(N2C(=S)N(c3ccc(C#N)c(C(F)(F)F)c3)C(=O)C23CCC3)ccc1OCCN1CCN(CC(=O)Nc2cccc(NC3CCC(=O)NC3=O)c2)[C@H](C)C1` (stereo partly drawn) [Example 105, 2-((R)-4-(2-(4-(7-(4-cyano-3-(trifluoromethyl)phenyl)-8-oxo-6-thioxo-5,7-diazaspiro[3.4]octan-5-yl)-2-ethylphenoxy)ethyl)-2-methylpiperazin-1-yl)-N-(3-(2,6-dioxopiperidin-3-ylamino)phenyl)acetamide], the “Y (AR degradation efficiency, % of DMSO control)” value is on record as “* (0<Y<=25%)”. In addition, the DC50 (read-out: DC50) is less than 100 nM.

Take `CCc1cc(N2C(=S)N(c3ccc(C#N)c(C(F)(F)F)c3)C(=O)C2(C)C)ccc1OCCN1CCN(CC(=O)Nc2cccc(NC3CCC(=O)NC3=O)c2)[C@H](C(F)(F)F)C1` (stereo partly drawn) [Example 246, 2-((S)-4-(2-(4-(3-(4-cyano-3-(trifluoromethyl)phenyl)-5,5-dimethyl-4-oxo-2-thioxoimidazolidin-1-yl)-2-ethylphenoxy)ethyl)-2-(trifluoromethyl)piperazin-1-yl)-N-(3-(2,6-dioxopiperidin-3-ylamino)phenyl)acetamide]: the “Y (AR degradation efficiency, % of DMSO control)” value is reported as “* (0<Y<=25%)”. For the same molecule, the DC50 (read-out: DC50) was less than 100 nM.

For `CCc1cc(N2C(=S)N(c3cnc(C#N)c(C(F)(F)F)c3)C(=O)C23CCC3)ccc1OCCN1C[C@@H](C)N(CC(=O)Nc2cc(NC3CCC(=O)NC3=O)ccc2F)[C@@H](C)C1` (stereo partly drawn) [Example 190, 2-((2S,6R)-4-(2-(4-(7-(6-cyano-5-(trifluoromethyl)pyridin-3-yl)-8-oxo-6-thioxo-5,7-diazaspiro[3.4]octan-5-yl)-2-ethylphenoxy)ethyl)-2,6-dimethylpiperazin-1-yl)-N-(5-(2,6-dioxopiperidin-3-ylamino)-2-fluorophenyl)acetamide], the “Y (AR degradation efficiency, % of DMSO control)” value is recorded as “* (0<Y<=25%)”. Further, the DC50 (read-out: DC50) was less than 100 nM.
